Test [1] has as its target NAMPT (human, recombinant, C-terminally His-tagged) (Homo sapiens, UniProt P43490). Description: Time-Resolved Fluorescence Resonance Energy Transfer (TR-FRET) Binding Assay of NAMPT. Conditions: 6.8 nM NAMPT, 200 nM probe, equilibrated 3 hours, absence of substrates. An outline of the steps: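 Recombinant C-terminally His-tagged human NAMPT (6.8 nM) incubated 3 h at room temperature with 200 nM Oregon Green 488–labelled nicotinamide-competitive probe and 1 nM Tb-anti-His antibody in HEPES pH 7.5, 2% DMSO. TR-FRET ratio Em520/Em495 normalized to controls; IC50 from four-parameter logistic fit.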
Background: In TR-FRET formats the signal depends on donor and acceptor labels being close together.

Another test has as its target NAMPT (Homo sapiens, UniProt P43490). Description: Time-Resolved Fluorescence Resonance Energy Transfer (TR-FRET) Binding Assay of NAMPT with PRPP. To be noted: 2 nM NAMPT, 2 nM probe, 200 uM PRPP and 2.5 mM ATP, equilibrated 16 hours. An outline of the steps:
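Final mix: 2 nM NAMPT, 2 nM probe, 1 nM Tb-anti-His antibody, 200 uM PRPP, 2.5 mM ATP, 2% DMSO in 1× assay buffer. Equilibrated 16 hours before TR-FRET read, allowing possible enzymatic modification of compounds.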

What is called IC50 is the concentration that gives 50% inhibition.

Chain of NAMPT (P43490 whole entry): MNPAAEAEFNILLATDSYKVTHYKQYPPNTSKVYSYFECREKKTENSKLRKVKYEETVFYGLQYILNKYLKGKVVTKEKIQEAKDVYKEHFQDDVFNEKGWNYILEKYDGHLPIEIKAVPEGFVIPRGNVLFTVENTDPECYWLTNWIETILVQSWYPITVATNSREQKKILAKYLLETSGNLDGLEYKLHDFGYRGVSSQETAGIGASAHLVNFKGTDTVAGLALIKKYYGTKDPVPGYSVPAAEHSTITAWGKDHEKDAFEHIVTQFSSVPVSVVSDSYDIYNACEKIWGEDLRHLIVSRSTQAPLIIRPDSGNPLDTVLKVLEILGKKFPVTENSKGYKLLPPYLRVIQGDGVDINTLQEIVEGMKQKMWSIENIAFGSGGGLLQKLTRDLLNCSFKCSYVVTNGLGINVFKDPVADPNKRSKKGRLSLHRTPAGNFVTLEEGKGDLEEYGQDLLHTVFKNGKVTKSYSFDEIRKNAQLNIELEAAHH
Chain of NAMPT (human, recombinant, C-terminally His-tagged) (P43490 whole entry): as above

In the case of `O=C(Nc1ccc(C2CCN(C(=O)c3ccc(F)cc3)CC2)cc1)C1CN(c2cccnn2)C1` [Example 349, N-{4-[1-(4-fluorobenzoyl)piperidin-4-yl]phenyl}-1-(pyridazin-3-yl)azetidine-3-carboxamide], the figures for the IC50 (in test [1]; at NAMPT) were 59.5 nM and 0.738 nM, respectively.

In the case of `O=C(Nc1ccc(C2CCN(C(=O)c3ccccc3Cl)CC2)cc1)C1CN(c2cccnn2)C1` [Example 350, N-{4-[1-(2-chlorobenzoyl)piperidin-4-yl]phenyl}-1-(pyridazin-3-yl)azetidine-3-carboxamide], the values for the IC50 (in test [1]; at NAMPT) were 4.62 nM and 0.642 nM, respectively.

Consider `O=C(Nc1ccc(C2CCN(C(=O)c3cccc(Cl)c3)CC2)cc1)C1CN(c2cccnn2)C1` [Example 351, N-{4-[1-(3-chlorobenzoyl)piperidin-4-yl]phenyl}-1-(pyridazin-3-yl)azetidine-3-carboxamide], for which the IC50 in test [1] was determined as 37.1 nM; on NAMPT, 0.765 nM.

Regarding `N#Cc1cccc(C(=O)N2CCC(c3ccc(NC(=O)C4CN(c5cccnn5)C4)cc3)CC2)c1` [Example 352, N-{4-[1-(3-cyanobenzoyl)piperidin-4-yl]phenyl}-1-(pyridazin-3-yl)azetidine-3-carboxamide], the IC50 in test [1] was 95.8 nM; at NAMPT, 0.615 nM.

For the compound `N#Cc1ccc(C(=O)N2CCC(c3ccc(NC(=O)C4CN(c5cccnn5)C4)cc3)CC2)cc1` [Example 353, N-{4-[1-(4-cyanobenzoyl)piperidin-4-yl]phenyl}-1-(pyridazin-3-yl)azetidine-3-carboxamide], the figures for the IC50 (in test [1]; at NAMPT) were 88.2 nM and 0.472 nM, respectively.

Take `O=C(Nc1ccc(C2CCN(C(=O)c3cccc(C(F)(F)F)c3)CC2)cc1)C1CN(c2cccnn2)C1` [Example 354, 1-(pyridazin-3-yl)-N-(4-{1-[3-(trifluoromethyl)benzoyl]piperidin-4-yl}phenyl)azetidine-3-carboxamide]: the IC50 came to 82.8 nM in test [1] and 0.837 nM at NAMPT.

As for `O=C(Nc1ccc(C2CCN(C(=O)c3ccc(C(F)(F)F)cc3)CC2)cc1)C1CN(c2cccnn2)C1` [Example 355, 1-(pyridazin-3-yl)-N-(4-{1-[4-(trifluoromethyl)benzoyl]piperidin-4-yl}phenyl)azetidine-3-carboxamide], the IC50 in test [1] was found to be 115 nM; on NAMPT it was 0.986 nM.

As to `O=C(Nc1ccc(C2CCN(C(=O)c3cccc(OC(F)(F)F)c3)CC2)cc1)C1CN(c2cccnn2)C1` [Example 356, 1-(pyridazin-3-yl)-N-(4-{1-[3-(trifluoromethoxy)benzoyl]piperidin-4-yl}phenyl)azetidine-3-carboxamide], the values for the IC50 (in test [1]; at NAMPT) were 67.7 nM and 0.878 nM, respectively.

Turning to `Cc1cccc(C(=O)N2CCC(c3ccc(NC(=O)C4CN(c5cccnn5)C4)cc3)CC2)c1C` [Example 357, N-{4-[1-(2,3-dimethylbenzoyl)piperidin-4-yl]phenyl}-1-(pyridazin-3-yl)azetidine-3-carboxamide], the IC50 was determined as 17.7 nM in test [1] and 1.14 nM on NAMPT.

For the compound `Cc1ccc(C(=O)N2CCC(c3ccc(NC(=O)C4CN(c5cccnn5)C4)cc3)CC2)c(C)c1` [Example 358, N-{4-[1-(2,4-dimethylbenzoyl)piperidin-4-yl]phenyl}-1-(pyridazin-3-yl)azetidine-3-carboxamide], the IC50 came out at 15.9 nM in test [1] and 0.815 nM at NAMPT.

`Cc1ccc(C)c(C(=O)N2CCC(c3ccc(NC(=O)C4CN(c5cccnn5)C4)cc3)CC2)c1` [Example 359, N-{4-[1-(2,5-dimethylbenzoyl)piperidin-4-yl]phenyl}-1-(pyridazin-3-yl)azetidine-3-carboxamide]: the figures for the IC50 (in test [1]; on NAMPT) were 21.3 nM and 0.869 nM, respectively.

Regarding `Cc1ccc(C(=O)N2CCC(c3ccc(NC(=O)C4CN(c5cccnn5)C4)cc3)CC2)cc1C` [Example 360, N-{4-[1-(3,4-dimethylbenzoyl)piperidin-4-yl]phenyl}-1-(pyridazin-3-yl)azetidine-3-carboxamide], the IC50 in test [1] amounted to 22 nM; at NAMPT it was 0.782 nM.

Take `Cc1cc(C)cc(C(=O)N2CCC(c3ccc(NC(=O)C4CN(c5cccnn5)C4)cc3)CC2)c1` [Example 361, N-{4-[1-(3,5-dimethylbenzoyl)piperidin-4-yl]phenyl}-1-(pyridazin-3-yl)azetidine-3-carboxamide]: the IC50 was determined as 37.4 nM in test [1] and 0.988 nM at NAMPT.

Consider `O=C(Nc1ccc(C2CCN(C(=O)c3ccc(Cl)cc3Cl)CC2)cc1)C1CN(c2cccnn2)C1` [Example 362, N-{4-[1-(2,4-dichlorobenzoyl)piperidin-4-yl]phenyl}-1-(pyridazin-3-yl)azetidine-3-carboxamide], for which the IC50 in test [1] was determined as 15.2 nM; on NAMPT it was 0.832 nM.

`O=C(Nc1ccc(C2CCN(C(=O)c3cc(Cl)ccc3Cl)CC2)cc1)C1CN(c2cccnn2)C1` [Example 363, N-{4-[1-(2,5-dichlorobenzoyl)piperidin-4-yl]phenyl}-1-(pyridazin-3-yl)azetidine-3-carboxamide]: the IC50 in test [1] amounted to 10.4 nM; at NAMPT, 0.798 nM.

Take `O=C(Nc1ccc(C2CCN(C(=O)c3ccc(Cl)c(Cl)c3)CC2)cc1)C1CN(c2cccnn2)C1` [Example 364, N-{4-[1-(3,4-dichlorobenzoyl)piperidin-4-yl]phenyl}-1-(pyridazin-3-yl)azetidine-3-carboxamide]: the values for the IC50 (in test [1]; at NAMPT) were 36.9 nM and 0.334 nM, respectively.

On to `O=C(Nc1ccc(C2CCN(C(=O)c3cc(Cl)cc(Cl)c3)CC2)cc1)C1CN(c2cccnn2)C1` [Example 365, N-{4-[1-(3,5-dichlorobenzoyl)piperidin-4-yl]phenyl}-1-(pyridazin-3-yl)azetidine-3-carboxamide], for which the IC50 was 50.1 nM in test [1] and 1.05 nM on NAMPT.

Take `O=C(Nc1ccc(C2CCN(C(=O)Cc3ccccc3F)CC2)cc1)C1CN(c2cccnn2)C1` [Example 366, N-(4-{1-[(2-fluorophenyl)acetyl]piperidin-4-yl}phenyl)-1-(pyridazin-3-yl)azetidine-3-carboxamide]: the IC50 in test [1] was 35.1 nM; on NAMPT, 0.681 nM.

`O=C(Nc1ccc(C2CCN(C(=O)Cc3cccc(F)c3)CC2)cc1)C1CN(c2cccnn2)C1` [Example 367, N-(4-{1-[(3-fluorophenyl)acetyl]piperidin-4-yl}phenyl)-1-(pyridazin-3-yl)azetidine-3-carboxamide]: the IC50 is 33.7 nM in test [1] and 0.735 nM at NAMPT.

Consider `O=C(Nc1ccc(C2CCN(C(=O)Cc3ccc(F)cc3)CC2)cc1)C1CN(c2cccnn2)C1` [Example 368, N-(4-{1-[(4-fluorophenyl)acetyl]piperidin-4-yl}phenyl)-1-(pyridazin-3-yl)azetidine-3-carboxamide], for which the IC50 in test [1] was determined as 64 nM; at NAMPT it was 0.635 nM.

With `O=C(Nc1ccc(C2CCN(C(=O)Cc3ccccc3Cl)CC2)cc1)C1CN(c2cccnn2)C1` [Example 369, N-(4-{1-[(2-chlorophenyl)acetyl]piperidin-4-yl}phenyl)-1-(pyridazin-3-yl)azetidine-3-carboxamide], the IC50 turned out to be 18.3 nM in test [1] and 0.479 nM at NAMPT.

As for `O=C(Nc1ccc(C2CCN(C(=O)Cc3ccc(Cl)cc3)CC2)cc1)C1CN(c2cccnn2)C1` [Example 370, N-(4-{1-[(4-chlorophenyl)acetyl]piperidin-4-yl}phenyl)-1-(pyridazin-3-yl)azetidine-3-carboxamide], the IC50 in test [1] was 30.5 nM; at NAMPT it was 0.555 nM.

`O=C(Nc1ccc(C2CCN(C(=O)Cc3ccc(C(F)(F)F)cc3)CC2)cc1)C1CN(c2cccnn2)C1` [Example 371, 1-(pyridazin-3-yl)-N-[4-(1-{[4-(trifluoromethyl)phenyl]acetyl}piperidin-4-yl)phenyl]azetidine-3-carboxamide]: the IC50 in test [1] amounted to 56.7 nM; on NAMPT, 0.438 nM.

For `Cc1cc(C)cc(CC(=O)N2CCC(c3ccc(NC(=O)C4CN(c5cccnn5)C4)cc3)CC2)c1` [Example 372, N-(4-{1-[(3,5-dimethylphenyl)acetyl]piperidin-4-yl}phenyl)-1-(pyridazin-3-yl)azetidine-3-carboxamide], the IC50 in test [1] is 16.6 nM; on NAMPT, 0.633 nM.

With `O=C(Nc1ccc(C2CCN(C(=O)Cc3cc(F)ccc3F)CC2)cc1)C1CN(c2cccnn2)C1` [Example 373, N-(4-{1-[(2,5-difluorophenyl)acetyl]piperidin-4-yl}phenyl)-1-(pyridazin-3-yl)azetidine-3-carboxamide], the results for the IC50 (in test [1]; on NAMPT) were 22.4 nM and 0.576 nM, respectively.

For `O=C(Nc1ccc(C2CCN(C(=O)Cc3ccc(Cl)c(Cl)c3)CC2)cc1)C1CN(c2cccnn2)C1` [Example 374, N-(4-{1-[(3,4-dichlorophenyl)acetyl]piperidin-4-yl}phenyl)-1-(pyridazin-3-yl)azetidine-3-carboxamide], the values for the IC50 (in test [1]; on NAMPT) were 23.9 nM and 0.973 nM, respectively.

For the compound `O=C(Nc1ccc(C2CCN(C(=O)c3ccoc3)CC2)cc1)C1CN(c2cccnn2)C1` [Example 375, N-{4-[1-(furan-3-ylcarbonyl)piperidin-4-yl]phenyl}-1-(pyridazin-3-yl)azetidine-3-carboxamide], the IC50 in test [1] was 6.72 nM; at NAMPT, 0.679 nM.

Take `O=C(Nc1ccc(C2CCN(C(=O)c3cccs3)CC2)cc1)C1CN(c2cccnn2)C1` [Example 376, 1-(pyridazin-3-yl)-N-{4-[1-(thiophen-2-ylcarbonyl)piperidin-4-yl]phenyl}azetidine-3-carboxamide]: the figures for the IC50 (in test [1]; at NAMPT) were 3.22 nM and 0.468 nM, respectively.

(Values after patent publication US8975398B2, “NAMPT inhibitors” (AbbVie Inc., priority 2012, dated 2015).)
